Laboratory results taken from PMC6054636, “Interaction between porous silica gel microcarriers and peptides for oral administration of functional peptides” (Scientific Reports, 2018).
Where no end group is shown, it is not given here.

What was measured:
[1] = amino acid hydrophobicity index; cited from earlier work
From the text: Rimola et al. reported a review paper on the effect of silica surface features on the adsorption of biomolecules, such as polypeptides. […] This tendency was also obtained in our experiments as described in Fig. 2C. […] All 5 ...

pepsin = target: T1, pepsin (Sus scrofa, UniProt P00791); assay: Peptide digestive enzyme stability experiment (SGF with pepsin); assay type: in vitro ADME; details: SGF pH 1.2 with pepsin (0.32 g/100 mL), 60 min, 37 °C, RP-HPLC UV, no addition of pepsin = 100%
T1 construct: purchased WAKO, Japan 161–24482
T1 sequence (P00791 60-385): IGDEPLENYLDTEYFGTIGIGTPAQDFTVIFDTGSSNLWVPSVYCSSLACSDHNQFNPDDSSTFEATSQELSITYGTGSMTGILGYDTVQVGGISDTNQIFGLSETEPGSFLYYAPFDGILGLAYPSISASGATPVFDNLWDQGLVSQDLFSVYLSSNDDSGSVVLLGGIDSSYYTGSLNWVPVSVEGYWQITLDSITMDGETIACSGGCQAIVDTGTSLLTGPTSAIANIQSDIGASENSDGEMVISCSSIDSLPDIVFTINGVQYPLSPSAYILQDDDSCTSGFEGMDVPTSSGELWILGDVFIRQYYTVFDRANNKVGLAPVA
Procedure: Finally, we investigated whether the heat-treated silica gel used in this study protected the peptides that were adsorbed to them from pepsin degradation. We used DFELEDD with a high score value (Fig. 3D). The peptide was adsorbed to the heat-treated silica gel, incubated for 60 min in simulated gastric fluid containing pepsin, and then transferred to the pH 7.4 buffer that mimics the intestinal environment. […] In contrast, the degradation of the peptide was inhibited under the condition with silica gel and 57.1 ± 3.9% of the peptide was released. This occurred because the peptide was adsorbed to the pore surface of the heat-treated silica gel. Schlipf et al. reported EGFP (2.4 nm diameter × 4.2 nm) protection from proteolytic attack by Pepsin A (7.3 nm × 3.6 nm × 5.4 nm) by the mesoporous silica with 7.3 nm pores. […]
SGF (simulated gastric fluid) has been reported previously. […] To quantify the peptide, 250 μL of solution was injected into the HPLC.
Chromatographic analysis was performed with a HPLC system (JASCO, Japan) equipped with pump (model PU 2086 Plus), UV detector (model MD 4017), and a C18 column (d = 20 mm, L = 250 mm; SHISEIDO, Japan). […] The column was maintained at 30 °C, the flow rate was 5 mL/min, and the eluted peaks were detected by UV absorbance of 220 and 280 nm.

Peptide release rate (protection) after pepsin degradation, with heat-treated silica gel (pepsin; 0.5 mM peptide mixed with 25 mg/mL heat-treated silica gel, precipitate released in 300 μL PBS pH 7.4, mean ± SD) [%] | Peptide release rate after pepsin degradation, without silica gel (pepsin; no silica gel, 0.5 mM peptide, then pH 7.4 PBS) [%] | Molecule | Hydrophobicity of amino acid [1]
 |  | CC[C@H](C)[C@H](N)C(=O)O [I] | 4.5
 |  | N[C@@H](Cc1ccccc1)C(=O)O [F, Phe] | 2.8
 |  | CC(C)[C@H](N)C(=O)O [V] | 4.2
57.1 ± 3.9 | < 1.0 | DFELEDD [DFELEDD] | 
